According to patent US20140018384A1, “QUINOLINONE DERIVATIVES FOR USE IN THE TREATMENT OF AN AUTOIMMUNE DISEASE AND/OR AN INFLAMMATORY DISEASE” (PRONOXIS AB, priority 2011, published 2014):
Where two headings read alike, the source gives them in different places.

Test system: PLB-985 cells
Test: ROS production (isoluminol/HRP luminescence) in PLB-985 cells, Biological Example 1
Assay type: cell-based
Procedure: To cells (HL-60 or PLB-985) in HBSS medium was added compound (25 or 50 μM), isoluminol and Horse Radish Peroxidase, fraction II. Luminescence was measured for 10-30 minutes and the area under the […] curve was divided by that from a control experiment to give the activity expressed as fold change.
Each assay indicated below was performed at a different site, at a different time, by different personnel and/or using different cell lines, concentrations and controls. The cell line, concentration of example compound and control used in respect of each assay were as indicated below. The values obtained from these different setups (each using an otherwise identical assay) are given as Activity A, B, C, D or E in Table 5 below. The values are expressed as fold increase of NADPH activity in the presence of the relevant of compound (as indicated below) compared to the relevant control (as indicated below).
Activity A: HL-60 cells; 50 μM compound vs. blank Activity B: PLB-985 cells; 25 μM compound vs. blank Activity C, D and E: PLB-985 cells; 25 μM compound vs. DMSO

[1] = 25 μM compound vs. DMSO, setup E, read-out: Activity E (fold increase of NADPH activity compared to control)
[2] = 25 μM compound vs. DMSO, setup C, read-out: Activity C (fold increase of NADPH activity compared to control)
[3] = 25 μM compound vs. blank, read-out: Activity B (fold increase of NADPH activity compared to control)

Work on COc1ccc2c(n1)c(=O)c(C(=O)c1ccc(F)cc1)cn2CC(=O)Nc1ccc(C)cc1 [Example 39, 2-[3-(4-Fluorobenzoyl)-6-methoxy-4-oxo-1,5-naphthyridin-1-yl]-N-p-tolylacetamide] yielded a fold induction at 25 µM [1] of 76.2.
COc1ccc2c(n1)c(=O)c(C(=O)c1ccc(F)cc1)cn2CC(=O)Nc1ccc(C(F)(F)F)cc1 [Example 40, 2-[3-(4-Fluorobenzoyl)-6-methoxy-4-oxo-1,5-naphthyridin-1-yl]-N-(4-trifluoromethylphenyl)acetamide] was tested, and the fold induction at 25 µM [1] was 73.
In the case of COc1cc(OC)c2c(c1)c(=O)c(C(=O)c1ccc(F)cc1)cn2CC(=O)Nc1ccc(Cl)cc1 [Example 42, N-(4-Chlorophenyl)-2-[6,8-dimethoxy-3-(4-fluorobenzoyl)-4-oxo-1-quinolinyl]acetamide], the fold induction at 25 µM [1] is reported as 2.5.
COc1cccc2c(=O)c(C(=O)c3ccc(F)cc3)cn(CC(=O)Nc3ccc(Cl)cc3)c12 [Example 43] gave a fold induction at 25 µM [1] of 3.8.
Compound COc1cc(OC)c2c(=O)c(C(=O)c3ccc(F)cc3)cn(CC(=O)Nc3ccc(Cl)cc3)c2c1 [Example 44] has a fold induction at 25 µM [1] of 78.1.
COc1ccc(NC(=O)Cn2cc(S(=O)(=O)c3ccc(Cl)cc3)c(=O)c3cc4c(cc32)OCO4)cc1 [Example 45, N-p-Anisyl-2-[3-(4-chlorobenzenesulfonyl)-6,7-methylenedioxy-4-oxo-1-quinolinyl]acetamide] showed a fold induction at 25 µM [2] of 10.7.
In the case of COc1ccc(NC(=O)Cn2cc(C(=O)c3ccc(C)cc3)c(=O)c3cc4c(cc32)OCO4)cc1 [Example 46, N-p-Anisyl-2-(6,7-methylenedioxy-4-oxo-3-p-toluoyl-1-quinolinyl)acetamide], the fold induction at 25 µM [2] is reported as 40.7 and the fold induction at 25 µM [3] is reported as 127.
For COc1ccc(NC(=O)Cn2cc(C(=O)c3ccc(C)c(C)c3)c(=O)c3cc4c(cc32)OCO4)cc1 [Example 47, N-p-Anisyl-2-[3-(3,4-dimethylbenzoyl)-6,7-methylenedioxy-4-oxo-1-quinolinyl]acetamide], the fold induction at 25 µM [2] was 58.4 and the fold induction at 25 µM [3] was 144.
With O=C(Cn1cc(C(=O)c2ccccc2)c(=O)c2cc3c(cc21)OCO3)Nc1ccc(Cl)cc1 [Example 48, 2-(3-Benzoyl-6,7-methylenedioxy-4-oxo-1-quinolinyl)-N-(4-chlorophenyl)acetamide] the fold induction at 25 µM [2] was 42.5 and the fold induction at 25 µM [3] was 81.4.
Cc1ccc(C(=O)c2cn(CC(=O)Nc3ccc(Cl)cc3)c3cc4c(cc3c2=O)OCO4)cc1 [Example 49, N-(4-Chlorophenyl)-2-(3-p-toluoyl-6,7-methylenedioxy-4-oxo-1-quinolinyl)acetamide] gave a fold induction at 25 µM [2] of 56.4 and a fold induction at 25 µM [3] of 152.
Work on Cc1ccc(C(=O)c2cn(CC(=O)Nc3ccc(Cl)cc3)c3cc4c(cc3c2=O)OCO4)cc1C [Example 50, N-(4-Chlorophenyl)-2-[3-(3,4-dimethylbenzoyl)-6,7-methylenedioxy-4-oxo-1-quinolinyl]acetamide] yielded a fold induction at 25 µM [2] of 62.8 and a fold induction at 25 µM [3] of 163.
Work on O=C(Cn1cc(C(=O)c2ccc(Cl)cc2)c(=O)c2cc3c(cc21)OCO3)Nc1ccc(Cl)cc1 [Example 51, 2-[3-(4-Chlorobenzoyl)-6,7-methylenedioxy-4-oxo-1-quinolinyl]-N-(4-chlorophenyl)acetamide] yielded a fold induction at 25 µM [2] of 66.7 and a fold induction at 25 µM [3] of 174.
CCc1ccc(C(=O)c2cn(CC(=O)Nc3ccc(OC)c(OC)c3)c3cc4c(cc3c2=O)OCO4)cc1 [Example 52, N-(3,4-Dimethoxyphenyl)-2-[3-(4-ethylbenzoyl)-6,7-methylenedioxy-4-oxo-1-quinolinyl]acetamide] showed a fold induction at 25 µM [2] of 55.6 and a fold induction at 25 µM [3] of 154.
For CCc1ccc(C(=O)c2cn(CC(=O)Nc3ccc(Cl)cc3)c3cc4c(cc3c2=O)OCO4)cc1 [Example 53, N-(4-Chlorophenyl)-2-[3-(4-ethylbenzoyl)-6,7-methylenedioxy-4-oxo-1-quinolinyl]acetamide], the fold induction at 25 µM [3] was 150.
Compound COc1ccc(NC(=O)Cn2cc(C(=O)c3ccc(F)cc3)c(=O)c3cc4c(cc32)OCO4)cc1 [Example 54, N-p-Anisyl-2-[(4-fluorobenzoyl)-6,7-methylenedioxy-4-oxo-1-quinolinyl]acetamide] has a fold induction at 25 µM [2] of 61.5, a fold induction at 25 µM (25 μM compound vs. DMSO, setup D, read-out: Activity D (fold increase of NADPH activity compared to control)) of 13.5 and a fold induction at 25 µM [3] of 74.2.
For O=C(Cn1cc(C(=O)c2ccc(F)cc2)c(=O)c2cc3c(cc21)OCO3)Nc1ccc(F)cc1 [Example 55, 2-[3-(4-Fluorobenzoyl)-6,7-methylenedioxy-4-oxo-1-quinolinyl]-N-(4-fluorophenyl)acetamide], the fold induction at 25 µM [2] was 19.6 and the fold induction at 25 µM [3] was 6.3.
COc1cc(NC(=O)Cn2cc(C(=O)c3ccc(Cl)cc3)c(=O)c3cc4c(cc32)OCO4)cc(OC)c1 [Example 56, 2-[3-(4-Chlorobenzoyl)-6,7-methylenedioxy-4-oxo-1-quinolinyl]-N-(3,5-dimethoxyphenyl)acetamide] was tested, and the fold induction at 25 µM [2] was 4.4 and the fold induction at 25 µM [3] was 6.4.
With COc1ccc(C(=O)c2cn(CC(=O)Nc3ccc4c(c3)OCCO4)c3cc4c(cc3c2=O)OCO4)cc1 [Example 58, 2-(3-p-Anisoyl-67-methylenedioxy-4-oxo-1-quinolinyl)-N-(3,4-ethylenedioxyphenyl)acetamide] the fold induction at 25 µM [2] was 3.6 and the fold induction at 25 µM [3] was 2.5.
COc1ccc(C(=O)c2cn(CC(=O)Nc3ccc4c(c3)OCO4)c3cc4c(cc3c2=O)OCO4)cc1 [Example 59, 2-(3-p-Anisoyl-6,7-methylenedioxy-4-oxo-1-quinolinyl)-N-(3,4-methylenedioxyphenyl)acetamide] showed a fold induction at 25 µM [2] of 13.4 and a fold induction at 25 µM [3] of 7.6.
Work on O=C(Cn1cc(C(=O)c2ccc(Cl)cc2)c(=O)c2cc3c(cc21)OCO3)Nc1ccc2c(c1)OCCO2 [Example 60, 2-[3-(4-Chlorobenzoyl)-6,7-methylenedioxy-4-oxo-1-quinolinyl]-N-(3,4-ethylenedioxyphenyl)acetamide] yielded a fold induction at 25 µM [2] of 33.3 and a fold induction at 25 µM [3] of 51.8.
CCOc1ccc(C(=O)c2cn(CC(=O)Nc3ccc(Cl)cc3)c3cc4c(cc3c2=O)OCO4)cc1 [Example 61, N-(4-Chlorophenyl)-2-[3-(4-ethoxybenzoyl)-6,7-methylenedioxy-4-oxo-1-quinolinyl]acetamide] was tested, and the fold induction at 25 µM [2] was 28.5 and the fold induction at 25 µM [3] was 35.9.
Cc1ccc(C(=O)c2cn(CC(=O)Nc3ccc(F)cc3)c3cc4c(cc3c2=O)OCO4)cc1 [Example 62, N-(4-Fluorophenyl)-2-(6,7-methylenedioxy-4-oxo-3-p-toluoyl-1-quinolinyl)acetamide] was tested, and the fold induction at 25 µM [2] was 26.1 and the fold induction at 25 µM [3] was 51.
For O=C(Cn1cc(C(=O)c2ccccc2)c(=O)c2cc3c(cc21)OCO3)Nc1ccc(F)cc1 [Example 63, 2-(3-Benzoyl-6,7-methylenedioxy-4-oxo-1-quinolinyl)-N-(4-fluorophenyl)acetamide], the fold induction at 25 µM [2] was 24.3 and the fold induction at 25 µM [3] was 37.3.
O=C(Cn1cc(C(=O)c2ccccc2)c(=O)c2cc3c(cc21)OCO3)Nc1ccc2c(c1)OCO2 [Example 64, 2-(3-Benzoyl-6,7-methylenedioxy-4-oxo-1-quinolinyl)-N-(3,4-methylenedioxyphenyl)acetamide] was tested, and the fold induction at 25 µM [2] was 27.9 and the fold induction at 25 µM [3] was 41.1.
CCOc1ccc(C(=O)c2cn(CC(=O)Nc3ccc(OC)cc3OC)c3cc4c(cc3c2=O)OCO4)cc1 [Example 65, N-(2,4-Dimethoxyphenyl)-2-[3-(4-ethoxybenzoyl)-6,7-methylenedioxy-4-oxo-1-quinolinyl]acetamide] gave a fold induction at 25 µM [2] of 2.8 and a fold induction at 25 µM [3] of 4.1.
CCOc1ccc(C(=O)c2cn(CC(=O)Nc3ccc4c(c3)OCCO4)c3cc4c(cc3c2=O)OCO4)cc1 [Example 66, 2-[3-(4-Ethoxybenzoyl)-6,7-methylenedioxy-4-oxo-1-quinolinyl]-N-(3,4-ethylenedioxyphenyl)acetamide] was tested, and the fold induction at 25 µM [2] was 2.5 and the fold induction at 25 µM [3] was 2.7.
In the case of CCOc1ccc(C(=O)c2cn(CC(=O)Nc3ccc(F)c(F)c3)c3cc4c(cc3c2=O)OCO4)cc1 [Example 67, N-(3,4-Difluorophenyl)-2-[3-(4-ethoxybenzoyl)-6,7-methylenedioxy-4-oxo-1-quinolinyl]acetamide], the fold induction at 25 µM [2] is reported as 1.8 and the fold induction at 25 µM [3] is reported as 2.3.
For COc1cccc(NC(=O)Cn2cc(C(=O)c3ccccc3)c(=O)c3cc4c(cc32)OCO4)c1 [Example 68, N-(m-Anisyl)-2-(3-benzoyl-6,7-methylenedioxy-4-oxo-1-quinolinyl)acetamide], the fold induction at 25 µM [2] was 6.7 and the fold induction at 25 µM [3] was 10.1.
COc1cccc(NC(=O)Cn2cc(C(=O)c3ccc(Cl)cc3)c(=O)c3cc4c(cc32)OCO4)c1 [Example 69, N-(m-Anisyl)-2-[3-(4-chlorobenzoyl)-6,7-methylenedioxy-4-oxo-1-quinolinyl]acetamide] gave a fold induction at 25 µM [2] of 4 and a fold induction at 25 µM [3] of 4.6.
Work on CCOc1ccc(NC(=O)Cn2cc(C(=O)c3ccc(C)cc3)c(=O)c3cc4c(cc32)OCO4)cc1 [Example 70, N-(4-Ethoxyphenyl)-2-(6,7-methylenedioxy-4-oxo-3-p-toluoyl-1-quinolinyl)acetamide] yielded a fold induction at 25 µM [2] of 25.4 and a fold induction at 25 µM [3] of 33.2.
In the case of CCOc1ccc(NC(=O)Cn2cc(C(=O)c3ccc(CC)cc3)c(=O)c3cc4c(cc32)OCO4)cc1 [Example 71, N-(4-Ethoxyphenyl)-2-[3-(4-ethylbenzoyl)-6,7-methylenedioxy-4-oxo-1-quinolinyl]acetamide], the fold induction at 25 µM [2] is reported as 25.1 and the fold induction at 25 µM [3] is reported as 43.6.
